Measured values reported in paper PMC6251916, “CKD-506, a novel HDAC6-selective inhibitor, improves renal outcomes and survival in a mouse model of systemic lupus erythematosus” (Scientific Reports, 2018).

Experiments:
[1] = tested on: acetylation of histone H4; test: Analysis of protein acetylation in human PBMC (western blot); assay type: cell-based; settings: 4 hr
Procedure: (§1) Human peripheral blood mononuclear cells (PBMC) (IRB No. CKD-IRB-012) were seeded (1.0 × 10^6 cells/well) and cultured for 24 hr on 12-well plate before treatment of CKD-506 or LBH-589. The chemicals were treated for 4 hr. After harvesting cells, total protein extracts were prepared. The protein extracts were resolved in pre-made SDS-PAGE (NuPAGE® Bis-Tris Precast Gels, Invitrogen). Proteins were transferred onto polyvinylidene difluoride (PVDF) membrane and probed with the following antibodies; anti-acetyl α tubulin (1:5000, #5335, Cell Signaling Technology), α tubulin (1:2000, #2144, Cell Signaling Technology), anti-acetyl histone H4(1:5000, #8647, Cell Signaling Technology), anti-histone H4(1:1000, #2935S, Cell Signaling Technology), and anti-beta-actin (1:5000, #A5441, Sigma). The horseradish peroxidase-conjugated anti-rabbit IgG (1:5000, #7074S, Cell Signaling Technology) and anti-mouse IgG (1:5000, #7076 S, Cell Signaling Technology) were used as secondary antibodies. Acetylated proteins were visualized by chemiluminescence (RPN2235, GE healthcare) and detected by the Gel documentation system (ChemiDoc™, BioRad).

acetylation of α tubulin = test: as above; assay type: cell-based
Procedure: as §1

NZB/W F1 female mice [2] = test: Murine SLE model: kidney histopathology (H&E, PAS, Masson trichrome); assay type: in vivo, mouse; settings: group CKD10
Source text: (§2) Survival had been monitored until 42 weeks of age.
Kidneys were harvested from mice at the end of the study (at 43–44 weeks of age). For light microscopy, the tissues were fixed in 10% neutral buffered formalin, embedded in paraffin wax, sectioned at a thickness of 5 μm and stained with H&E (BBC Biochemical, Mount Vernon, WA, USA). Periodic acid/Schiff (PAS stain kit, BBC Biochemical) staining and Masson trichrome (BBC Biochemical) staining were used for the detection of […] and fibrosis, respectively. Inflammatory cell infiltration and mesangial proliferation were scored on a 4-point scale as 0 (none), 1+ (mild), 2+ (moderate), 3+ (moderate to severe) and 4+ (severe).

NZB/W F1 female mice [3] = test: Murine SLE model: serum immunoglobulin isotyping; assay type: in vivo, mouse; settings: group CKD50
Procedure: as §2
Serum immunoglobulin concentrations were determined with mouse IgG1, IgG2A, IgG2B, IgG3, and IgM Isotyping kits and a mouse Mag Isotyping assay base kit (R&D Systems, Minneapolis, MN). Thirty-fold diluted sera were used for analysis of IgM and IgG2B levels, 6000-fold diluted sera were used for analysis of IgG1 and IgG2A levels and 48,000-fold diluted sera were used for analysis of IgG3 level.

NZB/W F1 female mice [4] = test: Murine SLE model: cytokine levels in kidney extracts; assay type: in vivo, mouse; settings: at autopsy, mean ± SD
Procedure: The kidneys were weighed and then transferred into dPBS (Welgene) supplemented with anti-protease Complete TM cocktail (Boehringer) using 12.5 μl of dPBS per milligram of wet weight tissue. Samples were homogenized twice using an Automill TK-AM5 freeze-crushing cell homogenizer (W 280 mm × D 390 mm × H 290 mm, Tokken Inc., Chiba, Japan) at 1,400 rpm for 90 seconds and then centrifuged at 16,000 × g for 15 min at 4 °C. The supernatants were collected and total protein concentrations were determined in the kidney extracts using a bicinchoninic acid (BCA) protein assay kit™ (Pierce). Total protein concentrations of the kidney extracts were adjusted to 2 mg/dl and used for the analysis of IFN-γ, IL-10, IL-15, IL-17, IL-1β, IL-4, IL-6, IP-10, MCP-1, CCL4, RANTES, TNF-α and sCD40L with Milliplex® MAP Kits (Millipore).

[5] = set-up: method as in EudraCT number: 2016-002816-42; settings: ref EudraCT number: 2016-002816-42; cited from earlier work
NZB/W F1 female mice [6] = test: Murine SLE model: serum chemistry and necropsy; settings: for ALP / ALT / AST / Albumin / CPK / Ca / Total bilirubin / Total protein: serum at autopsy, mean ± SD
Procedure: Control mice received 150 μL of vehicle (Ethanol: Kolliphor® EL: saline = 1:1:8) and were subjected to the same schedule. Survival rate and incidence of severe proteinuria (percent individual mice with urine protein ≥300 mg/dL) were calculated. Survival had been monitored until 42 weeks of age.

[7] = group D: CKD-506 10 mg/kg/day, n = 10
[8] = group E: CKD-506 30 mg/kg/day, n = 14

CKD-506
effect on acetylation of histone H4 [1]: without affecting
acetylation of α tubulin, % of maximum acetylation (acetylation of α tubulin; at 100 nM, human PBMC): about 85%
IC90 (acetylation of α tubulin; read-out: IC90 for the induction of α tubulin acetylation): ~100 nM
Masson's trichrome staining of kidneys (NZB/W F1 female mice [2]): fibrosis
Periodic acid-Schiff (PAS) staining of kidneys (NZB/W F1 female mice [2]): dilated tubules and casts
histopathological evaluation of the kidneys (H&E) (NZB/W F1 female mice [2]): Large numbers of inflammatory cell infiltrations and mesangial proliferation
serum levels of IgM vs vehicle (NZB/W F1 female mice [3]): significantly lower
Kidney extract CCL2 (NZB/W F1 female mice [4]; [7]): 61.30 ± 70.39 pg/mL
Kidney extract CCL4 (NZB/W F1 female mice [4]; [7]): 12.77 ± 23.90 pg/mL
Kidney extract IFN-γ (NZB/W F1 female mice [4]; [7]): 17.46 ± 15.04 pg/mL
Kidney extract IL-1β (NZB/W F1 female mice [4]; [7]): 2.09 ± 2.68 pg/mL
Kidney extract IL-4 (NZB/W F1 female mice [4]; [7]): 0.01 ± 0.02 pg/mL
Kidney extract IL-6 (NZB/W F1 female mice [4]; [7]): 3.99 ± 2.72 pg/mL
Kidney extract IL-10 (NZB/W F1 female mice [4]; [7]): 9.43 ± 4.36 pg/mL
Kidney extract IL-15 (NZB/W F1 female mice [4]; [7]): 34.25 ± 21.24 pg/mL
Kidney extract IP-10 (NZB/W F1 female mice [4]; [7]): 98.47 ± 44.61 pg/mL
Kidney extract RANTES (NZB/W F1 female mice [4]; [7]): 31.17 ± 24.93 pg/mL
Kidney extract TNF-α (NZB/W F1 female mice [4]; [7]): Not detected
Kidney extract CCL2 (NZB/W F1 female mice [4]; [8]): 21.90 ± 17.10 pg/mL
Kidney extract CCL4 (NZB/W F1 female mice [4]; [8]): 1.70 ± 4.61 pg/mL
Kidney extract IFN-γ (NZB/W F1 female mice [4]; [8]): 13.12 ± 4.85 pg/mL
Kidney extract IL-1β (NZB/W F1 female mice [4]; [8]): 1.18 ± 2.19 pg/mL
Kidney extract IL-4 (NZB/W F1 female mice [4]; [8]): 0.02 ± 0.05 pg/mL
Kidney extract IL-6 (NZB/W F1 female mice [4]; [8]): 1.65 ± 0.82 pg/mL
Kidney extract IL-10 (NZB/W F1 female mice [4]; [8]): 9.62 ± 2.42 pg/mL
Kidney extract IL-15 (NZB/W F1 female mice [4]; [8]): 42.42 ± 16.89 pg/mL
Kidney extract IP-10 (NZB/W F1 female mice [4]; [8]): 63.40 ± 21.06 pg/mL
Kidney extract RANTES (NZB/W F1 female mice [4]; [8]): 9.30 ± 7.86 pg/mL
Kidney extract TNF-α (NZB/W F1 female mice [4]; [8]): Not detected
Kidney extract CCL2 (NZB/W F1 female mice [4]; group F: 50 mg/kg/day, n = 14): 3.15 ± 6.10 pg/mL
Kidney extract CCL4 (NZB/W F1 female mice [4]; group F: 50 mg/kg/day, n = 14): Not detected*
Kidney extract IFN-γ (NZB/W F1 female mice [4]; group F: 50 mg/kg/day, n = 14): 6.77 ± 4.06 pg/mL
Kidney extract IL-1β (NZB/W F1 female mice [4]; group F: 50 mg/kg/day, n = 14): 0.26 ± 0.60 pg/mL
Kidney extract IL-4 (NZB/W F1 female mice [4]; group F: 50 mg/kg/day, n = 14): Not detected*
Kidney extract IL-6 (NZB/W F1 female mice [4]; group F: 50 mg/kg/day, n = 14): 0.43 ± 0.45 pg/mL
Kidney extract IL-10 (NZB/W F1 female mice [4]; group F: 50 mg/kg/day, n = 14): 7.60 ± 2.08 pg/mL
Kidney extract IL-15 (NZB/W F1 female mice [4]; group F: 50 mg/kg/day, n = 14): 32.82 ± 11.63 pg/mL
Kidney extract IP-10 (NZB/W F1 female mice [4]; group F: 50 mg/kg/day, n = 14): 43.90 ± 14.50 pg/mL
Kidney extract RANTES (NZB/W F1 female mice [4]; group F: 50 mg/kg/day, n = 14): 3.80 ± 2.17 pg/mL
Kidney extract TNF-α (NZB/W F1 female mice [4]; group F: 50 mg/kg/day, n = 14): Not detected
safety in phase I clinical trial [5]: did not reveal significant safety issues
appearance of the spleen, kidneys, liver, lungs, or heart (gross or microscopic examination at necropsy) (NZB/W F1 female mice [6]; end of experiment): did not result in significant changes
serum ALT relative to reference range (NZB/W F1 female mice [6]; group CKD50, significantly higher than the other groups): within the reference range
ALP (NZB/W F1 female mice [6]; group D: CKD-506 10 mg/kg/day): 187.44 ± 62.24 U/l
ALT (NZB/W F1 female mice [6]; group D: CKD-506 10 mg/kg/day): 18.10 ± 5.43 U/l
AST (NZB/W F1 female mice [6]; group D: CKD-506 10 mg/kg/day): 44.20 ± 10.09 U/l
Albumin (NZB/W F1 female mice [6]; group D: CKD-506 10 mg/kg/day): 1.91 ± 0.43 g/dL
CPK (NZB/W F1 female mice [6]; group D: CKD-506 10 mg/kg/day): 86.70 ± 56.89 U/l
Ca (NZB/W F1 female mice [6]; group D: CKD-506 10 mg/kg/day): 10.08 ± 1.26 mg/dL
Total bilirubin (NZB/W F1 female mice [6]; group D: CKD-506 10 mg/kg/day): 0.22 ± 0.09 mg/dL
Total protein (NZB/W F1 female mice [6]; group D: CKD-506 10 mg/kg/day): 4.74 ± 0.63 g/dL
ALP (NZB/W F1 female mice [6]; group E: CKD-506 30 mg/kg/day): 155.92 ± 19.94 U/l
ALT (NZB/W F1 female mice [6]; group E: CKD-506 30 mg/kg/day): 20.79 ± 2.91 U/l
AST (NZB/W F1 female mice [6]; group E: CKD-506 30 mg/kg/day): 55.21 ± 19.34 U/l
Albumin (NZB/W F1 female mice [6]; group E: CKD-506 30 mg/kg/day): 2.19 ± 0.43 g/dL
CPK (NZB/W F1 female mice [6]; group E: CKD-506 30 mg/kg/day): 84.71 ± 31.40 U/l
Ca (NZB/W F1 female mice [6]; group E: CKD-506 30 mg/kg/day): 9.65 ± 0.69 mg/dL
Total bilirubin (NZB/W F1 female mice [6]; group E: CKD-506 30 mg/kg/day): 0.26 ± 0.12 mg/dL
Total protein (NZB/W F1 female mice [6]; group E: CKD-506 30 mg/kg/day): 5.21 ± 0.71 g/dL
ALP (NZB/W F1 female mice [6]; group F: 50 mg/kg/day): 153.08 ± 17.25 U/l
ALT (NZB/W F1 female mice [6]; group F: 50 mg/kg/day): 29.07 ± 12.21 U/l
AST (NZB/W F1 female mice [6]; group F: 50 mg/kg/day): 59.00 ± 56.14 U/l
Albumin (NZB/W F1 female mice [6]; group F: 50 mg/kg/day): 2.26 ± 0.35 g/dL
CPK (NZB/W F1 female mice [6]; group F: 50 mg/kg/day): 125.86 ± 177.18 U/l
Ca (NZB/W F1 female mice [6]; group F: 50 mg/kg/day): 9.43 ± 0.59 mg/dL
Total bilirubin (NZB/W F1 female mice [6]; group F: 50 mg/kg/day): 0.28 ± 0.14 mg/dL
Total protein (NZB/W F1 female mice [6]; group F: 50 mg/kg/day): 5.35 ± 0.60 g/dL
